Measurements: ChEMBL document CHEMBL1147416, “Aza-bicyclic amino acid sulfonamides as alpha(4)beta(1)/alpha(4)beta(7) integrin antagonists” (Bioorg Med Chem Lett, 2004)
pIC50: −log10 of the molar value.

How the values were obtained:
Integrin alpha-4/beta-1 = Integrin alpha-4/beta-1 (Homo sapiens, UniProt P05556+P13612); assay: In vitro inhibition of binding of integrin alpha4-beta1 to immobilized VCAM-1 expressed on endothelial cell surface.; assay type: functional, cell-based
[1] = In vitro inhibition of binding of integrin alpha4-beta7 to immobilized MAdCAM-1 expressed on epithelial cell surface.; assay type: functional, cell-based
[2] = Inhibition of integrin alpha4-beta7 binding to immobilized MAdCAM-1 (mucosal addressin cell adhesion molecule-1) of epithelial cells at 5 uM; assay type: functional

Sequence of Integrin alpha-4/beta-1 (P05556 whole entry): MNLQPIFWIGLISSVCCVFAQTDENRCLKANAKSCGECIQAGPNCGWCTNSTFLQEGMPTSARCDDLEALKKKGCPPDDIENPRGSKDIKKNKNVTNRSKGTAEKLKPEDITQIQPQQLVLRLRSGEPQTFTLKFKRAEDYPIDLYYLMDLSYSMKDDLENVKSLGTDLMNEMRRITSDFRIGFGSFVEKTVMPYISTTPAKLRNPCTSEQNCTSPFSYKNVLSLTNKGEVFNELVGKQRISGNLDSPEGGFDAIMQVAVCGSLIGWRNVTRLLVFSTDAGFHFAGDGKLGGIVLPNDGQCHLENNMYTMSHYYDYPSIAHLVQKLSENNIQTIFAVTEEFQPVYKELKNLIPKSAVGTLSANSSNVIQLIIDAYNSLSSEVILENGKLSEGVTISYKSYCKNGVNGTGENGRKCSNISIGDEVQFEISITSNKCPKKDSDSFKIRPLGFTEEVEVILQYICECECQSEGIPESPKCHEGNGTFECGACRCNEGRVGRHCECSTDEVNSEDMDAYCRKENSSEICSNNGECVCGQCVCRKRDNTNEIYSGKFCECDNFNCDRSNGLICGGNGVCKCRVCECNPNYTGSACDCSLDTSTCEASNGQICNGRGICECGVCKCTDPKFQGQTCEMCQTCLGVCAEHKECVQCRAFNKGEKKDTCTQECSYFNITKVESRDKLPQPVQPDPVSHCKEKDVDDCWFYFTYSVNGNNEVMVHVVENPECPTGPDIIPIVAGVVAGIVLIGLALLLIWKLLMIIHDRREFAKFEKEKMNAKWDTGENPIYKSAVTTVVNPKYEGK
Sequence of Integrin alpha-4/beta-1 (P13612 whole entry): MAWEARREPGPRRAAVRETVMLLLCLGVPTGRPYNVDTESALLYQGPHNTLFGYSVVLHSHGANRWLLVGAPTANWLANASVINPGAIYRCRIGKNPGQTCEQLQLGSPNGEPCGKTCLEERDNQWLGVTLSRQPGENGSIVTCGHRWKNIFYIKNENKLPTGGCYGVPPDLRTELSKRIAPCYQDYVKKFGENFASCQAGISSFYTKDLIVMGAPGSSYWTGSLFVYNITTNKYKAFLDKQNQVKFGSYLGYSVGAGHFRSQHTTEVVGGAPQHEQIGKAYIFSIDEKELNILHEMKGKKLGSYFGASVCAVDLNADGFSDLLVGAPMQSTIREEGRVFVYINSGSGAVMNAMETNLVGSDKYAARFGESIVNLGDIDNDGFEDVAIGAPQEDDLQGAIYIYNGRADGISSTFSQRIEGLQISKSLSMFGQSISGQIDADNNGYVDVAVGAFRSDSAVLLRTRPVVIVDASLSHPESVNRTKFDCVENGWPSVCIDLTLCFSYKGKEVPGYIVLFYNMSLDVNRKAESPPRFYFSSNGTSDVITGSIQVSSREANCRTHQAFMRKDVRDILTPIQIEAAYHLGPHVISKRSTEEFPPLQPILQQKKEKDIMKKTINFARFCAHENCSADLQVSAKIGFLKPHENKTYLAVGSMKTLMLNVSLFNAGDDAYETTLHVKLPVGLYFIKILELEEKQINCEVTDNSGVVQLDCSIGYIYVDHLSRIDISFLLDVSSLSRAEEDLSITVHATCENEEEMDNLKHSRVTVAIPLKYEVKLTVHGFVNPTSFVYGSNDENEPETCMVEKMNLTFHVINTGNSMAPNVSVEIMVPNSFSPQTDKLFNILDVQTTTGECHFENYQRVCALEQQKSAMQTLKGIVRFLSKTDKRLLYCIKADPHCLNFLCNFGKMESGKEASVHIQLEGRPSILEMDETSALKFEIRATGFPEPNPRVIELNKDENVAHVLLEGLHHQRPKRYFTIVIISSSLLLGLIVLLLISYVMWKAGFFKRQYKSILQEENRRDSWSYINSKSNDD

SMILES: O=C(Nc1ccc(C[C@H](NC(=O)[C@@H]2C3CCC(CC3)N2S(=O)(=O)c2cccc3cccnc23)C(=O)O)cc1)c1cc(Cl)nc(Cl)c1
- pIC50 (Integrin alpha-4/beta-1): 6.82
- pIC50 [1]: 6.82

SMILES: O=C(Nc1ccc(C[C@H](NC(=O)[C@@H]2C3CCC(CC3)N2S(=O)(=O)c2ccccc2)C(=O)O)cc1)c1ccncc1
- pIC50 (Integrin alpha-4/beta-1): 7.44
- pIC50 [1]: 6.76

SMILES: Cc1ccc(S(=O)(=O)N2C3CCC(CC3)C2C(=O)N[C@@H](Cc2ccc(NC(=O)Cc3c(Cl)cccc3Cl)cc2)C(=O)O)cc1 (some centres undefined)
- inhibition at 5 µM [2]: 28%

SMILES: COc1cccc(OC)c1-c1ccc(C[C@H](NC(=O)[C@@H]2C3CCC(CC3)N2S(=O)(=O)c2ccccc2)C(=O)O)cc1
- pIC50 [1]: 7.05

SMILES: O=C(Nc1ccc(C[C@H](NC(=O)C2C3CCC(CC3)N2S(=O)(=O)c2c(Cl)cccc2Cl)C(=O)O)cc1)c1cc(Cl)nc(Cl)c1 (some centres undefined)
- pIC50 (Integrin alpha-4/beta-1): 6.98
- pIC50 [1]: 7.96

SMILES: O=C(Nc1ccc(C[C@H](NC(=O)[C@@H]2C3CCC(CC3)N2S(=O)(=O)c2ccccc2)C(=O)O)cc1)c1c(Cl)cccc1Cl
- pIC50 (Integrin alpha-4/beta-1): 7.72
- pIC50 [1]: 7.03

SMILES: O=C(Nc1ccc(C[C@H](NC(=O)[C@@H]2C3CCC(CC3)N2S(=O)(=O)c2ccccc2)C(=O)O)cc1)c1cc(Cl)nc(Cl)c1
- pIC50 (Integrin alpha-4/beta-1): 7.92
- pIC50 [1]: 7.89

SMILES: O=C(Nc1ccc(C[C@H](NC(=O)[C@@H]2C3CCC(CC3)N2S(=O)(=O)c2cccc3ccncc23)C(=O)O)cc1)c1cc(Cl)nc(Cl)c1
- pIC50 (Integrin alpha-4/beta-1): 7.92
- pIC50 [1]: 7.66

SMILES: O=C(Nc1ccc(C[C@H](NC(=O)[C@H]2C3CCC(CC3)N2S(=O)(=O)c2ccccc2)C(=O)O)cc1)c1c(Cl)cccc1Cl
- pIC50 (Integrin alpha-4/beta-1): 5.80

SMILES: Cc1ccc(S(=O)(=O)N2C3CCC(CC3)C2C(=O)N[C@@H](Cc2ccc(NC(=O)c3c(Cl)cccc3Cl)cc2)C(=O)O)cc1 (some centres undefined)
- pIC50 [1]: 6.49

SMILES: Cc1ccc(S(=O)(=O)N2C3CCC(CC3)C2C(=O)N[C@@H](Cc2ccc(NC(=O)c3c(Cl)cc(Cl)cc3Cl)cc2)C(=O)O)cc1 (some centres undefined)
- pIC50 [1]: 6.37

SMILES: COc1cccc(OC)c1-c1ccc(C[C@H](NC(=O)[C@@H]2C[C@@H](c3ccccc3)CN2S(=O)(=O)c2ccccc2)C(=O)O)cc1
- pIC50 (Integrin alpha-4/beta-1): 7.52
- pIC50 [1]: 6.92

SMILES: Cc1ccc(S(=O)(=O)N2C3CCC(CC3)C2C(=O)N[C@@H](Cc2ccc(NC(=O)Nc3c(Cl)cccc3Cl)cc2)C(=O)O)cc1 (some centres undefined)
- pIC50 (Integrin alpha-4/beta-1): 5.80

SMILES: Cc1ccc(S(=O)(=O)N2C3CCC(CC3)C2C(=O)N[C@@H](Cc2ccc(NC(=O)c3ccccc3)cc2)C(=O)O)cc1 (some centres undefined)
- inhibition at 5 µM [2]: 30%

SMILES: O=C(Nc1ccc(C[C@H](NC(=O)C2C3CCC(CC3)N2S(=O)(=O)c2cc(Cl)c(Cl)s2)C(=O)O)cc1)c1cc(Cl)nc(Cl)c1 (some centres undefined)
- pIC50 (Integrin alpha-4/beta-1): 7.16
- pIC50 [1]: 7.85

SMILES: CC(=O)N1CSC[C@@H]1C(=O)N[C@@H](Cc1ccc(OCc2c(Cl)cccc2Cl)cc1)C(=O)O
- pIC50 (Integrin alpha-4/beta-1): 6.39
- pIC50 [1]: 7.05

SMILES: O=C(Nc1ccc(C[C@H](NC(=O)C2C3CCC(CC3)N2S(=O)(=O)c2ccc(Cl)s2)C(=O)O)cc1)c1cc(Cl)nc(Cl)c1 (some centres undefined)
- pIC50 (Integrin alpha-4/beta-1): 7.96
- pIC50 [1]: 7.19

SMILES: O=C(Nc1ccc(C[C@H](NC(=O)[C@@H]2C3CCC(CC3)N2S(=O)(=O)c2cccs2)C(=O)O)cc1)c1c(Cl)cccc1Cl
- pIC50 (Integrin alpha-4/beta-1): 7.52
- pIC50 [1]: 7.21

SMILES: O=C(Nc1ccc(C[C@H](NC(=O)C2C3CCC(CC3)N2S(=O)(=O)c2ccccc2C(F)(F)F)C(=O)O)cc1)c1cc(Cl)nc(Cl)c1 (some centres undefined)
- pIC50 (Integrin alpha-4/beta-1): 7.09
- pIC50 [1]: 6.99

SMILES: O=C(Nc1ccc(C[C@H](NC(=O)[C@@H]2C3CCC(CC3)N2S(=O)(=O)c2cccs2)C(=O)O)cc1)c1cc(Cl)nc(Cl)c1
- pIC50 (Integrin alpha-4/beta-1): 8.30
- pIC50 [1]: 7.49

SMILES: O=C(O)[C@H](Cc1ccc(N2C(=O)c3ccccc3C2=O)cc1)NC(=O)[C@@H]1C2CCC(CC2)N1S(=O)(=O)c1ccccc1
- pIC50 [1]: 6.51
